Measurements taken from patent US7351744B2, “Naphthalene derivatives as termite repellents and toxicants” (Board of Supervisors of Louisiana State University and …, priority 2003, dated 2008).

Legend:
[1] = system: C. formosanus workers and soldiers; assay: Treated filter paper as the sole food source; type: in vivo, Coptotermes formosanus; conditions: for Percent survival: colonies C and WB combined
Protocol: To assay the effect of 2′-acetonaphthone on termites when added to a sole food source, acute and cumulative toxicities of 2′-acetonaphthone-treated filter paper (Whatman #2) and balsa wood (Ochroma lagopus Swartz) slices (2.3 cm×4.0 cm) were evaluated. Seven concentrations (0, 1, 10, 50, 100, 500, and 1000 mg/l) were prepared in 100 ml ethanol. Six filter papers and six wood slices were soaked in each concentration for 4 h; control filter papers and wood slices were soaked only in ethanol. After treatment, the food sources were kept overnight at ambient conditions for solvent evaporation. Eighty-four plastic containers (5.5 cm diameter×3.7 cm height) were provided with 22 g of wetted sand (20 g sand (fine blasting sand #4, Cement Products Inc., Baton Rouge, La.) mixed with 2 ml DDH2O). Then either a filter paper or a wood slice was separately placed to fit on the surface of the wetted sand and wetted with DDH2O (250 μl). Into each container, fifty workers and 20 soldiers were placed on the surface of the filter paper or wood slice. For each concentration and food sourse, three replicates received termites from colony C, and three replicates received termites from colony WB. The containers were covered and incubated for 10 days at 27.4° C. and 70% RH. Containers were monitored everytwo days to ensure suitable moisture. On days 1, 5 and 10, the number of living workers and soldiers were counted. An average percent survival was calculated for each treatment. (See Tables 2 and 3).

C. formosanus workers = assay: Treated sand when untreated sand is an alternative; type: in vivo, Coptotermes formosanus; conditions: for Survival (mean % ± SE) day 12: Colony WB; for Survival (mean % ± SE) day 12 / Survival (% ± SE) day 12: treated and untreated sand; for Survival (% ± SE) day 12: Colony E
Protocol: To further test the repellency of 2′-acetonaphthone, the three-chambered transparent plastic containers described in Example 5 were used. Sand was treated, allowed to dry from the solvent, and wetted with DDH2O as described in Example 5. Treated sand was placed in one of the side chambers, and the other side chamber received an equal amount of untreated sand. The concentrations of 2′-acetonaphthone used were 4.16, 8.33, 16.67, 33.33 and 66.67 mg/kg sand. Each concentration and the control had five replicate containers. Weighed balsa wood slices (0.159 cm×3.5 cm×6.0 cm each) were placed on the surface of both treated and untreated sand, and were wetted with 1 ml of DDH2O. Termites (200 workers and 20 soldiers) from colony WB were released in the middle chamber. On days 2, 3, 4 and 7, the bottom of each container was scanned, and tunnel areas measured as above. On day 12, the number of living termites in each container was recorded. The wood slices were then cleaned, dried and re-weighed to calculate food consumption.
The above experiment was repeated with new concentrations of 2′-acetonaphthone: 8.75, 17.5, 35, 70 and 140 mg/kg sand. Termites from colony E were tested, and the food source was changed to filter paper. Tunnels were scanned and measured on days 2, 5, 8 and 12. The data were analyzed as described in Example 5, and paired t-tests were used to compare tunneling and feeding activities between treated and untreated sides.

## CC(=O)c1ccc2ccccc2c1 [2′-acetonaphthone]
[1]; filter paper 1 mg/l, Day 1, Soldier
  Percent survival: 84.17 ± 9.26 a %
[1]; filter paper 1 mg/l, Day 1, Worker
  Percent survival: 87.67 ± 5.83 a %
[1]; filter paper 1 mg/l, Day 5, Soldier
  Percent survival: 58.33 ± 10.14 a %
[1]; filter paper 1 mg/l, Day 5, Worker
  Percent survival: 73.0 ± 8.24 a %
[1]; filter paper 1 mg/l, Day 10, Soldier
  Percent survival: 60.83 ± 13.07 a %
[1]; filter paper 1 mg/l, Day 10, Worker
  Percent survival: 55.67 ± 8.98 a %
[1]; filter paper 10 mg/l, Day 1, Soldier
  Percent survival: 80.0 ± 9.49 a %
[1]; filter paper 10 mg/l, Day 1, Worker
  Percent survival: 84.0 ± 4.95 a %
[1]; filter paper 10 mg/l, Day 5, Soldier
  Percent survival: 56.67 ± 12.49 a %
[1]; filter paper 10 mg/l, Day 5, Worker
  Percent survival: 66.67 ± 9.71 ab %
[1]; filter paper 10 mg/l, Day 10, Soldier
  Percent survival: 50.0 ± 12.91 a %
[1]; filter paper 10 mg/l, Day 10, Worker
  Percent survival: 53.67 ± 12.92 a %
[1]; filter paper 50 mg/l, Day 1, Soldier
  Percent survival: 72.50 ± 11.46 a %
[1]; filter paper 50 mg/l, Day 1, Worker
  Percent survival: 80.33 ± 9.76 a %
[1]; filter paper 50 mg/l, Day 5, Soldier
  Percent survival: 42.50 ± 9.56 a %
[1]; filter paper 50 mg/l, Day 5, Worker
  Percent survival: 68.33 ± 11.56 ab %
[1]; filter paper 50 mg/l, Day 10, Soldier
  Percent survival: 35.83 ± 8.41 a %
[1]; filter paper 50 mg/l, Day 10, Worker
  Percent survival: 55.0 ± 12.07 a %
[1]; filter paper 100 mg/l, Day 1, Soldier
  Percent survival: 73.33 ± 5.87 a %
[1]; filter paper 100 mg/l, Day 1, Worker
  Percent survival: 80.0 ± 6.68 a %
[1]; filter paper 100 mg/l, Day 5, Soldier
  Percent survival: 33.33 ± 11.53 a %
[1]; filter paper 100 mg/l, Day 5, Worker
  Percent survival: 48.33 ± 10.33 b %
[1]; filter paper 100 mg/l, Day 10, Soldier
  Percent survival: 17.50 ± 5.74 b %
[1]; filter paper 100 mg/l, Day 10, Worker
  Percent survival: 40.67 ± 9.98 a %
[1]; filter paper 500 mg/l, Day 1, Soldier
  Percent survival: 14.17 ± 5.23 b %
[1]; filter paper 500 mg/l, Day 1, Worker
  Percent survival: 18.33 ± 6.60 b %
[1]; filter paper 500 mg/l, Day 5, Soldier
  Percent survival: 0.0 ± 0.0 b %
[1]; filter paper 500 mg/l, Day 5, Worker
  Percent survival: 0.0 ± 0.0 c %
[1]; filter paper 500 mg/l, Day 10, Soldier
  Percent survival: 0.0 ± 0.0 c %
[1]; filter paper 500 mg/l, Day 10, Worker
  Percent survival: 0.0 ± 0.0 b %
[1]; filter paper 1000 mg/l, Day 1, Soldier
  Percent survival: 1.67 ± 1.67 b %
[1]; filter paper 1000 mg/l, Day 1, Worker
  Percent survival: 6.67 ± 6.67 b %
[1]; filter paper 1000 mg/l, Day 5, Soldier
  Percent survival: 0.0 ± 0.0 b %
[1]; filter paper 1000 mg/l, Day 5, Worker
  Percent survival: 0.0 ± 0.0 c %
[1]; filter paper 1000 mg/l, Day 10, Soldier
  Percent survival: 0.0 ± 0.0 c %
[1]; filter paper 1000 mg/l, Day 10, Worker
  Percent survival: 0.0 ± 0.0 b %
[1]; sole food source
  concentration acutely toxic when applied to a sole food source: 0.1 % (wt/v)
[1]; sole food source impregnated (filter paper or wood slice)
  concentration at which termites showed decreased survival: 1000 mg/L
C. formosanus workers; 4.16 mg/kg
  Survival (mean % ± SE) day 12: 48.75 ± 2.78 ab %
C. formosanus workers; 8.33 mg/kg
  Survival (mean % ± SE) day 12: 36.00 ± 4.76 bc %
C. formosanus workers; 8.75 mg/kg
  Survival (% ± SE) day 12: 61.60 ± 2.79 abc %
C. formosanus workers; 16.67 mg/kg
  Survival (mean % ± SE) day 12: 35.25 ± 3.47 bc %
C. formosanus workers; 17.5 mg/kg
  Survival (% ± SE) day 12: 67.20 ± 1.36 ab %
C. formosanus workers; 33.33 mg/kg
  Survival (mean % ± SE) day 12: 17.33 ± 7.22 c %
C. formosanus workers; 35.0 mg/kg
  Survival (% ± SE) day 12: 59.0 ± 7.72 bc %
C. formosanus workers; 66.67 mg/kg
  Survival (mean % ± SE) day 12: 24.25 ± 11.99 c %
C. formosanus workers; 70.0 mg/kg
  Survival (% ± SE) day 12: 53.0 ± 2.34 c %
C. formosanus workers; 140.0 mg/kg
  Survival (% ± SE) day 12: 51.60 ± 3.97 c %
C. formosanus workers; colony E
  concentration with significantly reduced survival after 12 days: ≥ 35.0 mg/kg sand
C. formosanus workers; colony E, 12 days
  concentration significantly reducing overall tunneling (treated plus untreated sand): ≥ 35.0 mg/kg
  concentration with significant reduction in consumption of filter paper on treated sand: ≥ 8.75 mg/kg
C. formosanus workers; colony E, only this treatment
  concentration with significantly less total food consumption: 140 mg/kg
C. formosanus workers; colony E, up to 12 days
  concentration with significant reduction in tunneling activity in treated sand: ≥ 17.5 mg/kg
C. formosanus workers; colony WB
  concentration with significantly reduced survival on day 12: ≥ 8.33 mg/kg
C. formosanus workers; colony WB, 12 days
  concentration with significantly reduced consumption of wood slices on treated sand: ≥ 8.33 mg/kg
C. formosanus workers; colony WB, days 2, 3, 4, 7
  concentration with significant difference in tunneling activity between untreated and treated sand: ≥ 16.67 mg/kg sand
